Data set [1] deals with CYP2C19 (Homo sapiens, UniProt P33261). Briefly: CYP450 inhibition assay, S-mephenytoin 4′-hydroxylase in human liver microsomes. In kind it is in vitro ADME. To be noted: read-out: IC50, CYP2C19 S-Mephenytoin 4′-hydroxylase; human liver microsomes 0.1 mg/mL; mean of triplicate. (Microsomes from liver hold many membrane-bound enzymes, among them those of drug oxidation.)
In data set [2] the test system is μ-opioid receptors. To be noted: ref Boyer et al., 2008; Kruegel et al., 2016; cited from earlier work.
Data set [3] has as its system CYP3A4/5. Briefly: CYP450 inhibition assay, midazolam 1′-hydroxylase in human liver microsomes. In kind it is in vitro ADME. To be noted: read-out: IC50, CYP3A4/5 Midazolam 1′-hydroxylase; human liver microsomes 0.1 mg/mL; mean of triplicate.
Data set [4] deals with CYP3A4/5. Briefly: CYP450 inhibition assay, testosterone 6β-hydroxylase in human liver microsomes. The conditions noted are these: read-out: IC50, CYP3A4/5 Testosterone 6β-hydroxylase; human liver microsomes 0.1 mg/mL; mean of triplicate. In kind it is in vitro ADME.
Data set [5] deals with CYP2D6 (Homo sapiens, UniProt P10635). The conditions noted are these: known CYP2D6 substrates; ref Obach et al., 2006; cited from earlier work.
For data set [6] the following is noted: deceased kratom users in the United States, autopsies; ref Gershman et al., 2019; cited from earlier work.
Data set [7] deals with CYP3A4. To be noted: in humans; ref Kamble et al., 2019; cited from earlier work.

pIC50: −log10 of the molar value. Where “and” joins values, the source holds several entries; their conditions need not be identical. Identical values can stand only once.

Sequence of CYP2C19 (P33261 whole entry): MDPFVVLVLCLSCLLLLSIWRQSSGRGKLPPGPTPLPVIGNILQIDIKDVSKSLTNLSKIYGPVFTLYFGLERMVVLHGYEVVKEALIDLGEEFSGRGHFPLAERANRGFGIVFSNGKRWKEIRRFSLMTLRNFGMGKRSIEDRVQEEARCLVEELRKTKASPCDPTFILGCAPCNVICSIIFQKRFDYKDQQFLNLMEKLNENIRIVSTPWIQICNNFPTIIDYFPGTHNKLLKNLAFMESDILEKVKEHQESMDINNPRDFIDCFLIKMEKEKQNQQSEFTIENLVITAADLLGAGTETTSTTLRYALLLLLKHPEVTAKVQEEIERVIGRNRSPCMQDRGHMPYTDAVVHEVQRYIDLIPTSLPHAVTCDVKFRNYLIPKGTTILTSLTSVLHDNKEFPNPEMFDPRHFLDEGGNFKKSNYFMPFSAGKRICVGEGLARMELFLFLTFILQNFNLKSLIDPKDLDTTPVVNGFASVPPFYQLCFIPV
Sequence of CYP2D6 (P10635 whole entry): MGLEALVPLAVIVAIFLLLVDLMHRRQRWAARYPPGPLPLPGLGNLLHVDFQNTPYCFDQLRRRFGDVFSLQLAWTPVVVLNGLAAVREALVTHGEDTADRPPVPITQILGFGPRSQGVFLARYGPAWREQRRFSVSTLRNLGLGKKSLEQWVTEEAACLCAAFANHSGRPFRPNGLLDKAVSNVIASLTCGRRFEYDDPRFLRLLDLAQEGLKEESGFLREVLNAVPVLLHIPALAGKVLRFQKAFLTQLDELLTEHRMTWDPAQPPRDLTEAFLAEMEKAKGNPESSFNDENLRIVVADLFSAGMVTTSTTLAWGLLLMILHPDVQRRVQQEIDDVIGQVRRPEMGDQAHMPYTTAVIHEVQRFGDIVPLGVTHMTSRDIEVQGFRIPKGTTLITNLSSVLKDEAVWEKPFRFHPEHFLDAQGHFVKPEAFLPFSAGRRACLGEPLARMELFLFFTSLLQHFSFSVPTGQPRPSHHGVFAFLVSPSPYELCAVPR

For `CC[C@@H]1CN2CC[C@@]3(O)C(=Nc4cccc(OC)c43)[C@@H]2C[C@@H]1/C(=C\OC)C(=O)OC` [7HMG, 7-hydroxymitragynine], the figures for the pIC50 in data set [1], in data set [3] and in data set [4] were 4.56, < 4.35 and < 4.35, respectively. The “activity at μ-opioid receptors” value in data set [2] is “partial agonists”.

Take `C=C[C@H]1CN2CCc3c([nH]c4cccc(OC)c34)[C@@H]2C[C@@H]1/C(=C\OC)C(=O)OC` [PAY, paynantheine]: the results for the pIC50 in data set [1], in data set [3] and in data set [4] were 4.42, 5.10 and < 4.35, respectively.

In the case of `CC[C@@H]1CN2CCc3c([nH]c4cccc(OC)c34)[C@H]2C[C@@H]1/C(=C\OC)C(=O)OC` [SPC, speciocilliatine], the pIC50 was 5.10 in data set [1], 4.58 in data set [3] and < 4.35 in data set [4].

In the case of `CC[C@H]1CN2CCc3c([nH]c4cccc(OC)c34)[C@@H]2C[C@@H]1/C(=C\OC)C(=O)OC` [SPG, speciogynine], the values for the pIC50 in data set [1], in data set [3] and in data set [4] were 4.71, 4.87 and < 4.35, respectively.

For `CNCCCN1c2ccccc2CCc2ccccc21` [desipramine], the “fm, CYP2D6” value in data set [5] is 0.9.

Take `COc1ccc2c(c1)[C@]13CCCC[C@@H]1[C@H](C2)N(C)CC3` [dextromethorphan]: in data set [5], the “fm, CYP2D6” value was 1.

As to `COCCc1ccc(OCC(O)CNC(C)C)cc1` (stereo not shown) [metoprolol], in data set [5], the “fm, CYP2D6” value is reported as 0.8.

In the case of mitragynine [MTG], the serum concentration levels in data set [6] is 16 to 4800 ng/mL and 0.041–12.05 μM. The “activity at μ-opioid receptors” value in data set [2] was “partial agonists”. Further, the “enzyme predominantly responsible for metabolism” value in data set [7] is “predominantly metabolized by CYP3A4”.

The values above are taken from article PMC7902086 (Toxicology letters, 2019).
